Reference: article PMC12254266, “Multicolored sequential resonance energy transfer for detection of simultaneous ligand binding at G protein-coupled receptors” (Nature Communications, 2025)
Values joined by “and” are separate entries in the source; they are usually repeats but may differ in a detail not shown here. Equal values may be shown once.

Legend:
Nluc-FFA1 = molecular target: T1, Nluc-FFA1 (Homo sapiens, UniProt O14842); assay: NanoBRET binding (saturation, competition, kinetics) at N terminal Nluc tagged FFA1; settings: for Specific BRET (690/450)%: Figure 4Ci; for Specific BRET (690/450)% / Specific BRET (540/450)%: technical duplicates; for Specific BRET (540/450)%: Figure 4Cii
T1 construct: expressed in transfected cells

FFA1 [1] = molecular target: T2, FFA1 (Homo sapiens, UniProt O14842); assay: Ca2+ mobilisation (Fura2) in Flp-In T-REx 293 cells expressing Nluc-FFA1, FFA1-Nluc or untagged FFA1; type: cell-based; set-up: expressed in transfected cells; settings: for Ca2+ Response as a % of T360 Response: single technical replicates
Outline: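 520 nm emission read at 340 and 380 nm excitation over 90 s spanning compound addition. Response taken as peak 340/380 ratio after subtracting pre-addition ratios.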

FFA1 [2] = molecular target: T2, FFA1; assay: NanoBiT arrestin-3 recruitment in HEK293T cells; type: cell-based; set-up: expressed in transfected cells; host or cells: HEK293T, transient; settings: for Arrestin recruitment (% TUG-905): technical duplicate
Description: For arrestin-3 recruitment assays, HEK293T cells were transfected with FFA1 receptor and a bystander NanoBiT split luciferase arrestin-3 recruitment biosensor. Cells were transfected and plated simultaneously in a reverse transfection protocol into a poly-D-lysine coated white 96-well plate. Per well, 60,000 cells were transfected with 5 ng plasmid expressing LgBiT with a N-terminal Lyn11 plasma membrane localisation tag, 5 ng plasmid expressing bovine arrestin-3 fused at its N-terminal to SmBiT tag and 30 ng plasmid expressing the human FFA1 receptor. Total DNA was made up to 100 ng total/well with empty pcDNA3 vector and transfected to cell suspension with 0.6 µg/well PEI. Following transfection cells were cultured for 24 h before use. On the day of assay, cells were washed twice with HBSS and incubated in HBSS for 30 min at 37 °C. NanoGlo substrate was added at a final 1:800 dilution and incubated in the dark for 10 min at 37 °C. […] Raw luminescence values were divided by baseline signal (average of first 5 data points prior to compound addition) and vehicle measurements subtracted from agonist treatment. Area under curves were calculated and concentration response curves plotted.

FFA1-Nluc = FFA1-Nluc (Homo sapiens, UniProt O14842); assay: Bystander BRET internalisation assay, FFA1-Nluc in HEK293T cells; type: cell-based; set-up: expressed in transfected cells; host or cells: HEK293T (ATCC, CRL-3216), transient; settings: in words; up to 60 min
Description: Cells were transfected using a reverse transfection protocol while plating into a poly-D-lysine coated white 96-well plates. Cells were plated at 60,000 cells with 100 ng of plasmid DNA and 0.6 µg of polyethyleneimine (PEI) per well. Cells were cultured for 24 h before washing with HBSS and incubating in HBSS at 37 °C for 30 min. NanoGlo substrate was added a final 1:800 dilution and plates incubated for 10 min at 37 °C. […] After 5 min of baseline measurements, readings were paused and test compounds added to the plate.

T1 sequence (O14842 whole entry): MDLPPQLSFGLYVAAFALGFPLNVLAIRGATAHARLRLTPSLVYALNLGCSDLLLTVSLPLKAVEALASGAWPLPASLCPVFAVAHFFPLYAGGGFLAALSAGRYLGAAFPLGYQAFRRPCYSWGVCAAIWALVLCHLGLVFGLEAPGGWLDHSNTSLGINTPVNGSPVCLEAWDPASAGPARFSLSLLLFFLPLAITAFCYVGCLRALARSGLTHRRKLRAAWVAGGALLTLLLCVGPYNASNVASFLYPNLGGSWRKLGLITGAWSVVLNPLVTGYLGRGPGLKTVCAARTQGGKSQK
T2 sequence (O14842 whole entry): as above
Chain of FFA1-Nluc (O14842 whole entry): as above

In the case of `COc1ccc(CCCC(C)(C)C)c(N2CCC(COc3cccc(C(CC(=O)O)C4CC4)c3)CC2)c1.O=C(O)C(F)(F)F` (stereo not drawn) [T360], the “Specific BRET (690/450)%” value (Nluc-FFA1; log[Ligand] -5) is reported as 144.71% and 144.91% and 150.40% and 149.82% and 134.29% and 145.90%, the “Specific BRET (690/450)%” value (Nluc-FFA1; log[Ligand] -5.5) is reported as 150.41% and 165.34% and 156.87% and 151.43% and 153.00% and 148.40% and the “Specific BRET (690/450)%” value (Nluc-FFA1; log[Ligand] -6) is reported as 147.37% and 160.23% and 150.08% and 152.06% and 150.91% and 153.01%. For the same molecule, the “Specific BRET (690/450)%” value (Nluc-FFA1; log[Ligand] -6.5) was 152.25% and 156.48% and 155.51% and 156.07% and 157.69% and 151.71%, the “Specific BRET (690/450)%” value (Nluc-FFA1; log[Ligand] -7) was 145.58% and 149.69% and 148.14% and 147.21% and 151.85% and 147.91% and the “Specific BRET (690/450)%” value (Nluc-FFA1; log[Ligand] -8) was 131.96% and 136.95% and 136.24% and 131.47% and 126.78% and 129.57%. For the same molecule, the “Specific BRET (690/450)%” value (Nluc-FFA1; log[Ligand] -9) was 110.80% and 118.14% and 114.71% and 107.71% and 113.55% and 115.30%, the “Specific BRET (690/450)%” value (Nluc-FFA1; log[Ligand] -10) was 99.19% and 105.01% and 94.99% and 98.91% and 101.09% and 100.81% and the “Specific BRET (540/450)%” value (Nluc-FFA1; log[Ligand] -6.5) was 37.02% and 22.26% and 31.97% and 27.51% and 29.14% and 29.84% and 21.82% and 24.91%. The “Specific BRET (540/450)%” value (Nluc-FFA1; log[Ligand] -7) was 53.44% and 33.59% and 38.71% and 49.07% and 47.92% and 48.08% and 44.12% and 39.90%, the “Specific BRET (540/450)%” value (Nluc-FFA1; log[Ligand] -8) was 84.61% and 81.81% and 70.02% and 81.70% and 81.41% and 76.64% and 80.12% and the “Specific BRET (540/450)%” value (Nluc-FFA1; log[Ligand] -9) was 105.73% and 99.36% and 90.61% and 103.73% and 98.31% and 99.33% and 93.77%. The “Specific BRET (540/450)%” value (Nluc-FFA1; log[Ligand] -10) was 104.20% and 95.80% and 91.09% and 108.91% and 101.37% and 98.63% and 98.32% and 101.68%, the “'bottom' of the IC50 curve fit, Nano-BRET TUG-2591” value (Nluc-FFA1; percentage of binding in the absence of competing ligand, tracer TUG-2591 100 nM) was 150% and the “'bottom' of the IC50 curve fit, Nano-BRET TUG-2597” value (Nluc-FFA1; percentage of binding in the absence of competing ligand, tracer TUG-2597 […]) was 5.3%. For the same molecule, the “pIC50 Nano-BRET TUG-2597” value (Nluc-FFA1; tracer TUG-2597 […], NBD/Nluc) was 7.1±0.03, the “pKi Nano-BRET TUG-2597” value (Nluc-FFA1; using Kd TUG-2597 380 nM) was 7.4±0.03 and the pEC50 (FFA1 [1]; Ca2+ data, mean±SEM, NR = No response) was 7.48±0.31. For the same molecule, the “Ca2+ Response as a % of T360 Response” value (FFA1 [1]; log[Ligand] -6) was 107.28% and 92.72% and 101.13% and 98.87% and 101.25% and 98.75%, the “Ca2+ Response as a % of T360 Response” value (FFA1 [1]; log[Ligand] -6.5) was 78.71% and 83.08% and 86.23% and 89.07% and 107.10% and 103.71% and the “Ca2+ Response as a % of T360 Response” value (FFA1 [1]; log[Ligand] -7) was 50.40% and 57.83% and 53.05% and 49.34% and 105.47% and 92.83%. For the same molecule, the “Ca2+ Response as a % of T360 Response” value (FFA1 [1]; log[Ligand] -7.5) was 52.48% and 51.74% and 26.53% and 33.96% and 89.83% and 84.58%, the “Ca2+ Response as a % of T360 Response” value (FFA1 [1]; log[Ligand] -8) was 4.55% and 3.96% and 1.45% and 1.23% and 56.26% and 55.08% and the “Ca2+ Response as a % of T360 Response” value (FFA1 [1]; log[Ligand] -9) was 6.44% and -16.92% and -0.13% and -0.73% and -0.82% and -0.55%. The “Ca2+ Response as a % of T360 Response” value (FFA1 [1]; log[Ligand] -10) was -18.12% and -11.48% and -0.62% and 0.09% and -1.11% and 0.64%, the EMax (FFA1 [1]; percentage of response to 10 μM T360, NR = No response) was 105±5% and the “Arrestin recruitment (% TUG-905)” value (FFA1 [2]; log[Ligand] -7) was 60.5575 % TUG-905 and 49.7987 % TUG-905 and 50.2806 % TUG-905 and 80.5606 % TUG-905 and 71.6469 % TUG-905 and 70.6208 % TUG-905. For the same molecule, the “Arrestin recruitment (% TUG-905)” value (FFA1 [2]; log[ligand] -6) was 47.2004 % TUG-905 and 63.2995 % TUG-905 and 73.3709 % TUG-905 and 81.6896 % TUG-905 and 75.2182 % TUG-905 and 56.718 % TUG-905, the “Arrestin recruitment (% TUG-905)” value (FFA1 [2]; log[ligand] -6.5) was 57.9984 % TUG-905 and 49.7595 % TUG-905 and 71.7903 % TUG-905 and 68.6055 % TUG-905 and 72.4316 % TUG-905 and 77.5018 % TUG-905 and the “Arrestin recruitment (% TUG-905)” value (FFA1 [2]; log[ligand] -7.5) was 57.0191 % TUG-905 and 67.1382 % TUG-905 and 59.7164 % TUG-905 and 62.616 % TUG-905 and 83.9201 % TUG-905 and 49.002 % TUG-905. The “EMax (% TUG-905) arrestin-3 recruitment” value (FFA1 [2]; percentage of the response to 10 μM TUG-905, ± SEM) was 66 ± 8%, the “pEC50 arrestin-3 recruitment” value (FFA1 [2]; ± SEM, N=3) was 8.9 ± 0.4 and the “internalization of FFA1-Nluc” value (FFA1-Nluc) was “No internalization”.
